Source: paper PMC12456010, “Structural constraints prevent a bat norovirus from binding to histo-blood group antigen co-factors” (Journal of Virology, 2025)

How the values were obtained:
GII.27 P domain = target: T1, GII.27 P domain (Norovirus GII, UniProt A0A2H4Y8Z8); test: X-ray co-crystal structure, […] A; type: binding; conditions: co-crystallized with 30-60 molar excess; one molecule per dimer, site at dimer interface: N354, R355, D384 of one monomer, K444, G446, Y447 of the other
T1 construct: protruding (P) domain of the capsid protein, dimer

GX P domain (NPIH26) = target: T2, GX P domain (NPIH26) (Bat norovirus, UniProt A0A2S1TZT6); test: X-ray co-crystal structure, […] A; type: binding; conditions: co-crystallized with 30-60 molar excess; two fucose molecules per P domain dimer; site E332, H334, E349, T433 of one monomer; pH 6.5
T2 construct: gene ORF2; protruding (P) domain of the capsid protein, dimer

Row | Compound | X-ray co-crystal structure, 1.76 A (GII.27 P domain) | X-ray co-crystal structure, 1.55 A (GX P domain (NPIH26))
1 | CC(=O)N[C@H]1[C@@H](O[C@H]2[C@@H](O)[C@@H](CO)OC(O)[C@@H]2O[C@@H]2O[C@@H](C)[C@@H](O)[C@@H](O)[C@@H]2O)O[C@H](CO)[C@H](O)[C@@H]1O (stereo partly drawn) [A-trisaccharide, α-L-fucose-(1-2)-α-D-galactose-(3-1)-2-N-acetyl-α-D-galactosamine] | a single A-trisaccharide molecule bound to the P domain dimer | 
2 | C[C@@H]1OC(O)[C@@H](O)[C@H](O)[C@@H]1O (some centres unmarked) [FUC, fucose] |  | The GX P domain held the fucose molecules with six direct hydrogen bonds
